# According to US10670605B2, “Cysteine reactive probes and uses thereof” (The Scripps Research Institute, priority 2015, dated 2020):
# Assays:
# Experiment in all cases: Competitive isoTOP-ABPP in situ (fragment-treated cells)
# Assay type in all cases: cell-based
# [1] = target: T1, cysteines in MDA-MB-231 and Ramos cells (Homo sapiens, UniProt Q86YH6)
# T1 sequence (Q86YH6 1-399): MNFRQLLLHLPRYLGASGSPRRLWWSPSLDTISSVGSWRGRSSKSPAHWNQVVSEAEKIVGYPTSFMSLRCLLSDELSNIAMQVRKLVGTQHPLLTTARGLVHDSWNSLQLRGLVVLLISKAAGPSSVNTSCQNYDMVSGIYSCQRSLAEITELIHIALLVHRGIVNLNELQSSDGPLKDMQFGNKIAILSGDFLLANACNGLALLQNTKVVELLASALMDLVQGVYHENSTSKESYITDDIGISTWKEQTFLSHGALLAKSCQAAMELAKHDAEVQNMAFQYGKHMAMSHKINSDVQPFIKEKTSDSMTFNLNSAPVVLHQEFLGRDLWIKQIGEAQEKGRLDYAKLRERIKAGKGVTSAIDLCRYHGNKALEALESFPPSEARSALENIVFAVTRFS
# [2] = target: T2, cysteines in MDA-MB-231 and Ramos cells (Homo sapiens, UniProt Q96EB1)
# T2 sequence (Q96EB1 1-424): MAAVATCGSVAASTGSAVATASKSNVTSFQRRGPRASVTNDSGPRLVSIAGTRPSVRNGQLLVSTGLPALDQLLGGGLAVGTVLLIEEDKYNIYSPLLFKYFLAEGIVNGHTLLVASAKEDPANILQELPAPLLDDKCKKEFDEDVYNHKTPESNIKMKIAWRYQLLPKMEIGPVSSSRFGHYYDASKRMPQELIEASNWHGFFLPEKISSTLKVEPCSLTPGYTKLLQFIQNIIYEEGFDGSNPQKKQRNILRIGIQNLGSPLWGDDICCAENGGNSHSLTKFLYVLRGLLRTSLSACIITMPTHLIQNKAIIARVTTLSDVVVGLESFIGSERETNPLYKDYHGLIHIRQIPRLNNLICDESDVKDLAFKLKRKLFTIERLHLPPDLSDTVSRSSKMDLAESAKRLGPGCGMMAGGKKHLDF
# [3] = target: T3, cysteines in MDA-MB-231 and Ramos cells (Homo sapiens, UniProt Q9UPQ0)
# T3 sequence (Q9UPQ0 1-1083): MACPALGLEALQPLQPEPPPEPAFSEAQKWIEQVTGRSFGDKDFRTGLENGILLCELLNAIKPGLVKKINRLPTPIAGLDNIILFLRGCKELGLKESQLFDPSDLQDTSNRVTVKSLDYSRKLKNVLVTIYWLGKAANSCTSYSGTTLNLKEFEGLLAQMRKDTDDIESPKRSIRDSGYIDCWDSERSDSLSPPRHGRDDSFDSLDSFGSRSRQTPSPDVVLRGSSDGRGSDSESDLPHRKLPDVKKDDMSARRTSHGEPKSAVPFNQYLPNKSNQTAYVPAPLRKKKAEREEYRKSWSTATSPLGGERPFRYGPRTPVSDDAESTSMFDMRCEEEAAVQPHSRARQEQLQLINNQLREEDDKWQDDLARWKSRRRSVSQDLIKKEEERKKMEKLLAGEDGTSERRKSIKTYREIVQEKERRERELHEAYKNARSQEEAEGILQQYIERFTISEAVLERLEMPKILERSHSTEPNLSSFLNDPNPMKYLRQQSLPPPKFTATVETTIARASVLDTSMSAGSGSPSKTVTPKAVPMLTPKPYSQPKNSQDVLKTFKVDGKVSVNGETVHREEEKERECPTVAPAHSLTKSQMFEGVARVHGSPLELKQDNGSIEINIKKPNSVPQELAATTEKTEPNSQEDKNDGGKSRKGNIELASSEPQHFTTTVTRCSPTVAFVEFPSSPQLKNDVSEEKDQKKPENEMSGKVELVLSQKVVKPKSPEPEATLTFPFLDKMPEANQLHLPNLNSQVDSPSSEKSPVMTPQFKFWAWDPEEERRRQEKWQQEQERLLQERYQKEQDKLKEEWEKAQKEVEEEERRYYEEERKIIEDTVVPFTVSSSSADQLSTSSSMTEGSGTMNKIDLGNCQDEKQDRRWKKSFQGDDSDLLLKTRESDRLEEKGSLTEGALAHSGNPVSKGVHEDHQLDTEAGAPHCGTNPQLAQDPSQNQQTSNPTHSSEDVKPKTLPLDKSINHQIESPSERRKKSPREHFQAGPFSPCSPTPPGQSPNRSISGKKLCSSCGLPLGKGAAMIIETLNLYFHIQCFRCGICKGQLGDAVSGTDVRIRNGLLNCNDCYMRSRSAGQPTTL
# [4] = target: cysteines in MDA-MB-231 and Ramos cells (Homo sapiens, UniProt Q9Y676)
# [5] = target: T4, cysteines in MDA-MB-231 and Ramos cells (Homo sapiens, UniProt Q96C19)
# T4 sequence (Q96C19 1-240): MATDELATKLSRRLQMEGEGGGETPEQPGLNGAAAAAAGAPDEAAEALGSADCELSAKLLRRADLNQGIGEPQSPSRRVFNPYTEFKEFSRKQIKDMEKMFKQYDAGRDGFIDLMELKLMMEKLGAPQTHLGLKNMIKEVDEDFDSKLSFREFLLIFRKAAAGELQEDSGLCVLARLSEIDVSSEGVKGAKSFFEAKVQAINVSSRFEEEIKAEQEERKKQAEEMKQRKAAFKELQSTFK
# [6] = target: T5, cysteines in MDA-MB-231 and Ramos cells (Homo sapiens, UniProt Q07065)
# T5 sequence (Q07065 1-602): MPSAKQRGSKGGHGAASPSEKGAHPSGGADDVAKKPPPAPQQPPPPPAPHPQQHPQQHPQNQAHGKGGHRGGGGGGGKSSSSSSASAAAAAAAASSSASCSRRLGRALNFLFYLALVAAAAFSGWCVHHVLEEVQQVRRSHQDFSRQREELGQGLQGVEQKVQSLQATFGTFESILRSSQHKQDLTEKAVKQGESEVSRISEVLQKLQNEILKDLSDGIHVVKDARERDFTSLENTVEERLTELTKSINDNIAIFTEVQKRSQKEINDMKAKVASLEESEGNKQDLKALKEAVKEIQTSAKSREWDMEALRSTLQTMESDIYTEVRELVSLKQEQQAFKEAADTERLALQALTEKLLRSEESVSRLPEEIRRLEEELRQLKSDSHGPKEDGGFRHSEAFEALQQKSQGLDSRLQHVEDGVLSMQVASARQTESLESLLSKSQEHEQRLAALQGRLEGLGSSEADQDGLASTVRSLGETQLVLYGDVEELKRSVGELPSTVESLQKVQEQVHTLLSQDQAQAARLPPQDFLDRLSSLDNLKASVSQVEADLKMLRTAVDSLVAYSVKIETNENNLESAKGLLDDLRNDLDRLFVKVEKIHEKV
compound,measurement,setting,value
CC(C)CCOCCNC(=O)CCl [compound 27],isoTOP-ABPP ratio Q86YH6_C71,"[1]; 200 μM, insitu, 231",1.3
same,isoTOP-ABPP ratio Q96EB1_C218,"[2]; 200 μM, insitu, 231",0.6
same,isoTOP-ABPP ratio Q9UPQ0_C140,"[3]; 200 μM, insitu, 231",0.7
same,isoTOP-ABPP ratio Q9Y676_C128,"[4]; 200 μM, insitu, 231",1.0
COc1cc2c(cc1OC)CN(C(=O)CCl)CC2 [compound 8],isoTOP-ABPP reactivity Q9UPQ0_C140 LIMCH1,"[3]; 200 μM, insitu, 231",20.0
same,isoTOP-ABPP reactivity Q9Y676_C128 MRPS18B,"[4]; 200 μM, insitu, 231",1.0
COc1ccc(C2CC(c3cccs3)=NN2C(=O)CCl)cc1 (centres unmarked) [compound 4],isoTOP-ABPP reactivity Q86YH6_C71 PDSS2,[1]; 100 μM in situ 231,20.0
same,isoTOP-ABPP reactivity Q96C19_C172 EFHD2,[5]; 100 μM in situ 231,5.3
same,isoTOP-ABPP reactivity Q96EB1_C218 ELP4,[2]; 100 μM in situ 231,20.0
same,isoTOP-ABPP reactivity Q9Y676_C128 MRPS18B,[4]; 100 μM in situ 231,2.3
O=C(CCl)Nc1cccc2ncccc12 [compound 51],isoTOP-ABPP ratio Q96C19_C172,"[5]; 200 μM, insitu, 231",1.2
same,isoTOP-ABPP ratio Q9Y676_C128,"[4]; 200 μM, insitu, 231",1.0
O=C(CCl)N1CCN(S(=O)(=O)c2ccccc2F)CC1 [compound 10],isoTOP-ABPP ratio Q86YH6_C71,"[1]; 200 μM, insitu, 231",20.0
same,isoTOP-ABPP ratio Q96C19_C172,"[5]; 200 μM, insitu, 231",2.4
same,"isoTOP-ABPP ratio, cysteine Q96EB1_C218","[2]; 200 μM, insitu, 231",1.1
same,isoTOP-ABPP ratio Q9UPQ0_C140,"[3]; 200 μM, insitu, 231",3.9
same,isoTOP-ABPP ratio Q9Y676_C128,"[4]; 200 μM, insitu, 231",2.9
CC1CCc2ccccc2N1C(=O)CCl (centres unmarked) [compound 45],isoTOP-ABPP ratio Q07065_C100,"[6]; 200 μM, insitu, 231",20.0
same,isoTOP-ABPP ratio Q86YH6_C71,"[1]; 200 μM, insitu, 231",20.0
same,isoTOP-ABPP ratio Q96EB1_C218,"[2]; 200 μM, insitu, 231",20.0
same,isoTOP-ABPP ratio Q9UPQ0_C140,"[3]; 200 μM, insitu, 231",20.0
same,isoTOP-ABPP ratio Q9Y676_C128,"[4]; 200 μM, insitu, 231",2.0
Cc1ccc(C=C(C#N)C(=O)NCCN2CCOCC2)cc1 [compound 41],isoTOP-ABPP ratio Q07065_C100,"[6]; 200 μM, insitu, 231",1.0
same,isoTOP-ABPP ratio Q86YH6_C71,"[1]; 200 μM, insitu, 231",0.9
same,isoTOP-ABPP ratio Q96C19_C172,"[5]; 200 μM, insitu, 231",0.5
same,isoTOP-ABPP ratio Q9UPQ0_C140,"[3]; 200 μM, insitu, 231",0.5
COc1ccc2c(c1)CCCN2C(=O)CCl [compound 2],isoTOP-ABPP reactivity Q86YH6_C71 PDSS2,"[1]; 200 μM, insitu, 231",20.0
same,isoTOP-ABPP reactivity Q9UPQ0_C140 LIMCH1,"[3]; 200 μM, insitu, 231",20.0
same,isoTOP-ABPP reactivity Q9Y676_C128 MRPS18B,"[4]; 200 μM, insitu, 231",10.2
C=CC(=O)Nc1cc(F)c(N2CCN(C(=O)OC(C)(C)C)CC2)c(F)c1 [compound 38],isoTOP-ABPP ratio Q96C19_C172,"[5]; 200 μM, insitu, 231",0.7
same,isoTOP-ABPP ratio Q96EB1_C218,"[2]; 200 μM, insitu, 231",1.3
same,isoTOP-ABPP ratio Q9UPQ0_C140,"[3]; 200 μM, insitu, 231",2.5
same,isoTOP-ABPP ratio Q9Y676_C128,"[4]; 200 μM, insitu, 231",1.0
O=C(CCl)NC(=O)NC12CC3CC(CC(C3)C1)C2 [compound 12],"isoTOP-ABPP ratio, cysteine Q07065_C100","[6]; 200 μM, insitu, 231",20.0
same,isoTOP-ABPP ratio Q86YH6_C71,"[1]; 200 μM, insitu, 231",20.0
same,isoTOP-ABPP ratio Q96C19_C172,"[5]; 200 μM, insitu, 231",0.9
same,isoTOP-ABPP ratio Q9UPQ0_C140,"[3]; 200 μM, insitu, 231",1.9
same,isoTOP-ABPP ratio Q9Y676_C128,"[4]; 200 μM, insitu, 231",1.4
C=CC(=O)N(Cc1cccnc1)c1cc(C(F)(F)F)cc(C(F)(F)F)c1 [compound 31],isoTOP-ABPP ratio Q96C19_C172,"[5]; 200 μM, insitu, 231",1.6
Cn1cc(S(=O)(=O)N2CCOCC2)cc1C(=O)NC(=O)CCl [compound 11],"isoTOP-ABPP ratio, cysteine Q07065_C100",[6]; 100 μM in situ 231,1.0
same,isoTOP-ABPP ratio Q86YH6_C71,[1]; 100 μM in situ 231,1.0
same,isoTOP-ABPP ratio Q96C19_C172,[5]; 100 μM in situ 231,0.9
same,isoTOP-ABPP ratio Q9UPQ0_C140,[3]; 100 μM in situ 231,1.0
same,isoTOP-ABPP ratio Q9Y676_C128,[4]; 100 μM in situ 231,0.8
O=C(CCl)NCCc1c[nH]c2ccccc12 [compound 13],"isoTOP-ABPP ratio, cysteine Q07065_C100","[6]; 200 μM, insitu, 231",1.6
same,isoTOP-ABPP ratio Q86YH6_C71,"[1]; 200 μM, insitu, 231",1.2
same,isoTOP-ABPP ratio Q86YH6_C71,"[1]; 200 μM, insitu, ramos",1.8
same,isoTOP-ABPP ratio Q96C19_C172,"[5]; 200 μM, insitu, 231",0.7
same,"isoTOP-ABPP ratio, cysteine Q96EB1_C218","[2]; 200 μM, insitu, 231",1.2
same,"isoTOP-ABPP ratio, cysteine Q96EB1_C218","[2]; 200 μM, insitu, ramos",1.7
same,isoTOP-ABPP ratio Q9UPQ0_C140,"[3]; 200 μM, insitu, 231",1.1
O=C(CCl)N1CCN(CC(=O)N2CCOCC2)CC1 [compound 29],isoTOP-ABPP ratio Q86YH6_C71,"[1]; 200 μM, insitu, ramos",1.1
same,isoTOP-ABPP ratio Q96C19_C172,"[5]; 200 μM, insitu, ramos",1.2
same,isoTOP-ABPP ratio Q96EB1_C218,"[2]; 200 μM, insitu, ramos",1.1
O=C(CCl)NC12CC3CC(CC(C3)C1)C2 [compound 21],"isoTOP-ABPP ratio, cysteine Q07065_C100","[6]; 200 μM, insitu, 231",2.2
same,isoTOP-ABPP ratio Q86YH6_C71,"[1]; 200 μM, insitu, 231",2.1
same,"isoTOP-ABPP ratio, cysteine Q96EB1_C218","[2]; 200 μM, insitu, 231",0.7
same,isoTOP-ABPP ratio Q9UPQ0_C140,"[3]; 200 μM, insitu, 231",0.8
same,isoTOP-ABPP ratio Q9Y676_C128,"[4]; 200 μM, insitu, 231",1.5
O=C(CCl)N1CCC(Cc2ccccc2)CC1 [compound 9],isoTOP-ABPP reactivity Q07065_C100 CKAP4,"[6]; 200 μM, insitu, 231",15.4
same,isoTOP-ABPP reactivity Q96C19_C172 EFHD2,"[5]; 200 μM, insitu, 231",2.8
same,isoTOP-ABPP reactivity Q96EB1_C218 ELP4,"[2]; 200 μM, insitu, 231",8.4
